Columns and labels:
Experiment in all cases: Postemergence herbicidal activity, greenhouse, visual injury
Format in all cases: in vivo
[1] = system: barnyardgrass (Echinochloa crus-galli, ECHCG); settings: post-emergence, read-out: Effect (% visual injury) Obs
Experimental: (§1) The plants were grown for 7-36 days (d) in a greenhouse with an approximate 14-hour (h) photoperiod which was maintained at about 23° C. during the day and 22° C. during the night. Nutrients and water were added on a regular basis and supplemental lighting was provided with overhead metal halide 1000-Watt lamps as necessary. The plants were employed for testing when they reached the second or third true leaf stage.
(§2) Spray solutions of the experimental compound mixtures were prepared by adding the stock solutions to the appropriate amount of dilution solution to form a 12 mL spray solution in two-way combinations. […] Control plants were sprayed in the same manner with the solvent blank. Application rates for component (a) are in g ae/ha, and application rates for component (b) are in g ai/ha.
(§3) The treated plants and control plants were placed in a greenhouse as described above and watered by sub-irrigation to prevent wash-off of the test compounds. After 20-22 d, the condition of the test plants as compared with that of the control plants was determined visually and scored on a scale of 0 to 100 percent where 0 corresponds to no injury and 100 corresponds to complete kill. […] The Colby method was used to determine the herbicidal effects expected from the mixtures.

[2] = system: common lambsquarters (Chenopodium album L., CHEAL); settings: post-emergence, read-out: Effect (% visual injury) Obs
Experimental: as §1, §2, §3

[3] = system: wild pansy (Viola tricolor, VIOTR); settings: post-emergence, read-out: Effect (% visual injury) Obs
Experimental: as §1, §2, §3

[4] = system: wild oat (Avena fatua, AVEFA); settings: post-emergence, read-out: Effect (% visual injury) Obs
Experimental: as §1, §2, §3

[5] = system: rice (Oryza sativa, ORYSA); settings: post-emergence, read-out: Effect (% visual injury) Obs
Experimental: as §1, §2, §3

[6] = system: wild buckwheat (Polygonum convolvulus, POLCO); settings: Fallopia convolvulus, post-emergence, read-out: Effect (% visual injury) Obs
Experimental: as §1, §2, §3

[7] = system: giant foxtail (Setaria faberi, SETFA); settings: post-emergence, read-out: Effect (% visual injury) Obs
Experimental: as §1, §2, §3

[8] = system: large crabgrass (Digitaria sanguinalis, DIGSA); settings: post-emergence, read-out: Effect (% visual injury) Obs
Experimental: as §1, §2, §3

[9] = system: maize (Zea mays, ZEAMX); settings: post-emergence, read-out: Effect (% visual injury) Obs
Experimental: as §1, §2, §3

[10] = system: pigweed (Amaranthus retroflexus, AMARE); settings: post-emergence, read-out: Effect (% visual injury) Obs
Experimental: as §1, §2, §3

[11] = system: grain sorghum (Sorghum vulgare, SORVU); settings: post-emergence, read-out: Effect (% visual injury) Obs
Experimental: as §1, §2, §3

[12] = system: soybean (Glycine max, GLXMA); settings: post-emergence, read-out: Effect (% visual injury) Obs
Experimental: as §1, §2, §3

[13] = system: velvetleaf (Abutilon theophrasti, ABUTH); settings: post-emergence, read-out: Effect (% visual injury) Obs
Experimental: as §1, §2, §3

[14] = system: kochia (Kochia scoparia, KCHSC); settings: Tralkoxydim 200 g ai/ha
Experimental: (§4) Seeds of the desired test plant species were planted in Sun Gro MetroMix® 306 planting mixture, which typically has a pH of 6.0 to 6.8 and an organic matter content of about 30 percent, in plastic pots with a surface area of 103.2 square centimeters (cm^2). When required to ensure good germination and healthy plants, a fungicide treatment and/or other chemical or physical treatment was applied. The plants were grown for 7-36 days (d) in a greenhouse with an approximate 14-hour (h) photoperiod which was maintained at about 23° C. during the day and 22° C. during the night. Nutrients and water were added on a regular basis and supplemental lighting was provided with overhead metal halide 1000-Watt lamps as necessary. The plants were employed for testing when they reached the second or third true leaf stage.
(§5) An emulsifiable concentrate (EC) formulation containing Compound 1 at 100 gai/L was prepared by combining Compound 1 with 1-butyl-2-pyrrolidinone (Tamisolve NxG; 360.5 g/L), benzyl acetate (544.6 g/L) and Agnique MBL 520L surfactant (52.9 g/L). […] The concentrated stock solution was diluted with an aqueous mixture of 1.5% v/v of Agri-dex crop oil concentrate to provide the appropriate application rates. Compound requirements are based upon a 12 milliliter (mL) application volume at a rate of 187 liters per hectare (L/ha). Spray solutions of the experimental compound mixtures were prepared by adding the stock solutions to the appropriate amount of dilution solution to form a 12 mL spray solution in two-way combinations. Formulated compounds were applied to the plant material with an overhead Mandel track sprayer equipped with 8002E nozzles calibrated to deliver 187 L/ha over an application area of 0.503 square meters (m^2) at a spray height of 18 inches (43 centimeters (cm)) above average plant canopy. Control plants were sprayed in the same manner with the solvent blank. Application rates for component (a) are in g ae/ha, and application rates for component (b) are in g ai/ha.
as §3

[15] = system: poinsettia (Euphorbia heterophylla, EPHHL)
Experimental: as §4, §5, §3

[16] = system: winter rape (Brassica napus, BRSNW); settings: post-emergence, read-out: Effect (% visual injury) Obs
Experimental: as §4, §5, §3

[17] = system: chickweed (Stellaria media, STEME); settings: post-emergence, read-out: Effect (% visual injury) Obs
Experimental: as §4, §5, §3

[18] = system: blackgrass (Alopecurus myosuroides, ALOMY); settings: post-emergence, read-out: Effect (% visual injury) Obs
Experimental: as §1, §2, §3

[19] = system: sunflower (Helianthus annuus, HELAN); settings: post-emergence, read-out: Effect (% visual injury) Obs
Experimental: as §1, §2, §3

[20] = system: winter wheat (Triticum aestivum, TRZAW); settings: post-emergence, read-out: Effect (% visual injury) Obs
Experimental: as §1, §2, §3

[21] = system: ivyleaf morningglory (Ipomoea hederacea, IPOHE); settings: Clodinafop-propargyl 30 g ai/ha
Experimental: as §4, §5, §3

[22] = Clodinafop-propargyl 30 g ai/ha

CCON=C(CC)C1=C(O)CC(c2c(C)cc(C)cc2C)CC1=O (stereo not drawn) [Tralkoxydim, 2-[1-(ethoxyimino)propyl]-3-hydroxy-5-mesitylcyclohex-2-enone]
pest or weed control at 200 g/ha [1]: 30%
pest or weed control at 200 g/ha [2]: 5%
pest or weed control at 200 g/ha [3]: 5%
pest or weed control at 200 g/ha [4]: 100%
plant injury at 200 g/ha [5]: 75%
pest or weed control at 200 g/ha [6]: 0%
pest or weed control at 200 g/ha [7]: 0%
pest or weed control at 200 g/ha [8]: 50%
plant injury at 200 g/ha [9]: 100%
pest or weed control at 200 g/ha [10]: 0%
plant injury at 200 g/ha [11]: 60%
plant injury at 200 g/ha [12]: 0%
pest or weed control at 200 g/ha [13]: 0%
Effect (% visual injury) Obs [14]: 0%
Effect (% visual injury) Obs ([15]; Tralkoxydim 200 g ai/ha): 0%
plant injury at 200 g/ha [16]: 0%
pest or weed control at 200 g/ha [17]: 10%

COC(=O)[C@@H](C)Oc1ccc(Oc2ncc(C(F)(F)F)cc2Cl)cc1 [Haloxyfop-P-methyl]
pest or weed control at 70 g/ha [1]: 100%
pest or weed control at 70 g/ha [2]: 0%
pest or weed control at 70 g/ha [3]: 0%
plant injury at 70 g/ha [5]: 100%
pest or weed control at 70 g/ha [6]: 0%
pest or weed control at 70 g/ha [8]: 100%
pest or weed control at 70 g/ha [18]: 97%
plant injury at 70 g/ha [9]: 100%
pest or weed control at 70 g/ha [10]: 0%
plant injury at 70 g/ha [11]: 100%
plant injury at 70 g/ha [19]: 0%
plant injury at 70 g/ha [20]: 100%
plant injury at 70 g/ha [12]: 0%
pest or weed control at 70 g/ha [13]: 0%
Effect (% visual injury) Obs ([15]; Haloxyfop-P-methyl 70 g ai/ha): 0%
plant injury at 70 g/ha [16]: 0%
pest or weed control at 70 g/ha [17]: 0%

C#CCOC(=O)[C@@H](C)Oc1ccc(Oc2ncc(Cl)cc2F)cc1 [Clodinafop-propargyl, prop-2-ynyl (R)-2-[4-(5-chloro-3-fluoro-2-pyridyloxy)phenoxy]propionate]
pest or weed control [1, 22]: 100%
pest or weed control [4, 22]: 90%
plant injury [5, 22]: 90%
pest or weed control [6, 22]: 0%
pest or weed control [7, 22]: 98%
pest or weed control [8, 22]: 95%
pest or weed control [18, 22]: 10%
plant injury [9, 22]: 100%
pest or weed control [10, 22]: 0%
plant injury [11, 22]: 100%
plant injury [19, 22]: 0%
plant injury [20, 22]: 0%
plant injury [12, 22]: 0%
pest or weed control [13, 22]: 0%
plant injury at 30 g/ha [16, 22]: 0%
Effect (% visual injury) Obs [21]: 0%
pest or weed control at 30 g/ha [17, 22]: 0%
